Measured values published in patent publication US9572786B2, “Use of capsiate or dihydrocapsidate” (Catholic University Industry Academy Cooperation Foundation, priority 2007, dated 2017).

Legend:
JNK [1] = test: MAPK signaling in mouse skin tissue, Western blotting: JNK; format: in vivo; settings: hairless mouse; UV+CPT vs UV with acetone only
Procedure: In order to investigate the intracellular mechanism (signaling) related with the inhibition of COX-2 expression by capsiate, Western blotting was carried out for MAPK signaling-related proteins (ERK, p-ERK, p38, p-p38 and JNK, p-JNK) as in Example 2-2, using proteins isolated from the mouse skin tissue.

hairless mouse = test: UV-induced erythema in hairless mouse; format: in vivo; settings: 200 μL of 1 mM topically, UV 400, 600 and 800 J/m^2, 48 hours later
Procedure: When the skin is exposed to UV, erythema, or […] of the skin, occurs accompanied by edema, prior to a variety of cellular changes including inflammation, apoptosis, carcinogenesis, or the like [Tadashi Terui, Hachiro Tagami, Mediators of inflammation involved in UVB erythema, Journal of Dermatological Science 23 Suppl. 1 (2000) S1S5]. In order to investigate the effect of capsiate on erythema accompanied by UV-induced inflammatory response, experiment was carried out as follows using hairless mouse. Test groups were as follows: non-treated group—treated with acetone only without UV irradiation; test group A—treated with 200 μL of 1 mM capsiate dissolved in acetone without UV irradiation; UV group—treated with acetone and UV; test group B—treated with UV and 200 μL of 1 mM capsiate dissolved in acetone every 24 hours.
Acetone or capsiate diluted in acetone was applied on the back of the mouse of each test group. 1 hour later, a mask was attached on the back of the mouse such that UV could be irradiated only on an area of 1.2 cm×1.2 cm. UV was irradiated at an intensity of 400, 600 and 800 J/m^2. The degree of erythema was measured 48 hours later.

TNF-α = test: UV-induced TNF-α mRNA in hairless mouse skin, RT-PCR; format: in vivo; settings: 200 μL of 1 mM topically 1 hour before UV 5 kJ/m^2 once, 6 hours later
Procedure: In order to investigate the effect of capsiate on the production of IL-6 and TNF-α induced in skin tissue during inflammatory response, the inhibition ability of capsiate against the expression of the pro-inflammatory cytokines was evaluated in animal model as follows. Test groups were as follows: non-treated group—treated with acetone only without UV irradiation; test group A—treated with 200 μL of 1 mM capsiate dissolved in acetone without UV irradiation; UV group—treated with acetone and UV; test group B—treated with 200 μL of 1 mM capsiate dissolved in acetone followed by UV irradiation 1 hour later.
To this end, acetone and capsiate were treated prior to UV irradiation. After treating with UV once at an intensity of 5 kJ/m^2, hairless mouse was euthanized 6 hours later. mRNA was extracted from the mouse tissue obtained by skin biopsy and RT-PCR was carried out as follows. For RNA extraction from the tissue, each mouse tissue obtained by skin biopsy was quickly frozen in liquid nitrogen and ground finely using a mortar. RNA was extracted from the mouse tissue using Trizol (Invitrogen, USA), and PCR (PTC-225 Peltier thermal cycler, MJ Research, USA) was carried out using it as template and using a commercial kit (reverse transcription system, Qiagen, USA). As a result, cDNA was prepared from each group. […]

JNK [2] = test: MAPK signaling after UV, Western blotting: JNK; format: cell-based, human; settings: HaCaT cells; 10, 25, 50 μM; 30 minutes after UV irradiation
Procedure: Western blotting was performed in the same manner as in Example 2-1 in order to identify the factor that affects the COX-2 expression regulated by capsiate, except for treating the cells with capsiate at different concentrations (10 μM, 25 μM and 50 μM) prior to UV irradiation, and using rabbit anti-ERK antibody, rabbit anti-p-ERK antibody, rabbit anti-p38 antibody, rabbit anti-p-p38 antibody, rabbit anti-JNK antibody and rabbit anti-p-JNK antibody (cell signaling), and anti-rabbit IgG-HRP conjugation antibody (Zymed) as the secondary antibody, 30 minutes after UV irradiation.

Lck = test: Tyrosine phosphorylation in T cells, Western blotting with anti-PY antibody; format: cell-based, C57/BL6 mouse; settings: mouse spleen T cells; 5 and 25 uM; α-CD3 and α-CD4 or α-CD3
Procedure: Western blotting was carried out using anti-tyrosine phosphorylation (anti-PY) antibody in order to investigate the mechanism by which the proliferation of T cells is inhibited by capsiate.
Specifically, 5×10^5 of the T cells isolated in Example 14-1 was placed on a 96-well plate and capsiate was treated at concentrations of 5 and 25 uM. After treating with 2 μg/mL α-CD3 and α-CD4, or 2 μg/mL α-CD3, followed by incubation for 10 minutes in ice and then incubation for 10 minutes at 37° C., centrifuge was carried out. The cells obtained from the centrifuge was lysed using RIPA buffer containing 2 mM EDTA, 137 mM NaCl, 20 mM Tris-HCl (pH 8.0), 1 mM sodium vanadate, 10 mM NaF, 1 mM phenylmethanesulfonyl fluoride (PMSF), 1% NP-40, 10% glycerol and protease inhibitor cocktail, and subjected to SDS-PAGE electrophoresis using 10% acrylamide gel in order to isolate the proteins. The isolated proteins were transferred to a nylon membrane and tyrosine phosphorylated proteins were separated using mouse anti-PY antibody (Becton Dickison, USA) and anti-mouse IgG-HRP conjugation antibody (1; 10,000, Zymed) as the secondary antibody. The isolated proteins were detected by ECL (Amersham, USA) and visualized using RAS 3000 imaging system (Fuji Film, Japan).

ICAM-1 (CD54) = test: ICAM-1 expression in mouse skin, Western blotting; format: in vivo; settings: mouse skin tissue; test group B
Procedure: (§1) In order to investigate the effect of capsiate on various intracellular angiogenesis-related expression factors, the inhibition effect of capsiate on angiogenesis factors induced by UV was evaluated using the mouse tissue of Example 5.
Western blotting was carried out in the same manner as Example 6 using the proteins isolated from the mouse skin tissue of each test group in Example 6, in order to investigate the level of expression of ICAM-1 (CD54), which is involved in cell infiltration, cell migration, angiogenesis, etc. in inflammatory response. In order to investigate the level of ICAM-1 expression, mouse anti-ICAM-1 antibody (Santa Cruz, USA) and HRP-conjugated secondary antibody (1:10,000, Zymed) were used.

PECAM-1 (CD31) = test: PECAM-1 expression in mouse skin, immunohistochemical staining; format: in vivo; settings: mouse skin tissue of Example 5; treated prior to UV irradiation
Procedure: as §1
To investigate this effect, the paraffin-embedded tissue prepared as in Example 6 was processed in the same manner as Example 6, treated with PECAM-1 antibody (1:100, BD Pharmingen, USA) on a slide, treated with biotinylated secondary antibody (DAKO code K0675; DAKO Corp., USA) for 30 minutes, and washed 3 times. After treatment with streptavidin-peroxidase (DAKO code K0675, DAKO Corp., USA) for 30 minutes, followed by washing 3 times with PBS, the tissue was stained using DAB (DAKO Corp., USA) for confirmation of the level of PECAM-1 expression.

With `COc1cc(COC(=O)CCCC/C=C/C(C)C)ccc1O` [capsiate] the “JNK (phosphorylation) in mouse skin tissue” value (JNK [1]) was “no significant difference”, the degree of erythema (hairless mouse) was “weaker” and the “UV-induced expression of TNF-α (mRNA) in skin tissue” value (TNF-α) was “decrease”. For the same compound, the “JNK (phosphorylation)” value (JNK [2]) was “no particular change”, the “tyrosine phosphorylation in T cells” value (Lck) was “inhibited” and the “level of ICAM-1 expression increased by UV irradiation” value (ICAM-1 (CD54)) was “decreased”. For the same compound, the “level of PECAM-1 expression” value (PECAM-1 (CD31)) was “significantly lower”.
